Target: T1, HEK-Blue-hTLR8 cells (Homo sapiens, UniProt Q9NR97)
T1 construct: expressed in transfected cells; host or cells: HEK-Blue-hTLR8 cells (HEK293-derived reporter line)
T1 sequence (Q9NR97 27-1041): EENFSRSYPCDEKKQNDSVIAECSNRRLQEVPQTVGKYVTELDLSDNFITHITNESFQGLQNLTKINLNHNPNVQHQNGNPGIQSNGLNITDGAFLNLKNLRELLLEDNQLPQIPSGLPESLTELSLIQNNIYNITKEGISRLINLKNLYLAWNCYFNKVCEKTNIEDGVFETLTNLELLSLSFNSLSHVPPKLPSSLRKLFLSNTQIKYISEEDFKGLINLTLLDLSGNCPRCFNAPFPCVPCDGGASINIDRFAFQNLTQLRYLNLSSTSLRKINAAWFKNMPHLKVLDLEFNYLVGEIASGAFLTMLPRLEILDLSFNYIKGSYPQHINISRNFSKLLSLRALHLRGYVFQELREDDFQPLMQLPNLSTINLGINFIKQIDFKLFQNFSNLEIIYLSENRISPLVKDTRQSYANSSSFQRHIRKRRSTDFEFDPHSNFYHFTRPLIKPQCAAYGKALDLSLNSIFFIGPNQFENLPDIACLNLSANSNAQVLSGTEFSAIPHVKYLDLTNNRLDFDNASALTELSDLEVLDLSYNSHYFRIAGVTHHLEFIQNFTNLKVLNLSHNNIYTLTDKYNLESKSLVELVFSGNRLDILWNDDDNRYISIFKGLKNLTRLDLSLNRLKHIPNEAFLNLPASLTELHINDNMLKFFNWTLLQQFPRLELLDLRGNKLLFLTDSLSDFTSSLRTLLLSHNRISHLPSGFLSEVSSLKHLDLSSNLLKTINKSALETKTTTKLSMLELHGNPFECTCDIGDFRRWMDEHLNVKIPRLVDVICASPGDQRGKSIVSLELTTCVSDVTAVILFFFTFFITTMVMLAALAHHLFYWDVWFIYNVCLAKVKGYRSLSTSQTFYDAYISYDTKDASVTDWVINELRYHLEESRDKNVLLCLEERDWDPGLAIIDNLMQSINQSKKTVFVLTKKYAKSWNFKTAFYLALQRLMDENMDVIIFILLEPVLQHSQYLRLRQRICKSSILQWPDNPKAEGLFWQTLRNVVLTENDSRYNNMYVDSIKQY
Assay: HEK-Blue-hTLR8 cell inhibition assay
Type: cell-based
Settings: R848 3 µM, 16 h, OD 620 nm, read-out: TLR8 IC50
Experimental: HEK-Blue-hTLR7/8/9 cell inhibition assay
1. HEK-Blue-hTLR7/8 cells (1 × 10^4 cells/well) and HEK-Blue-hTLR9 cells (1.5 × 10^4 cells/well) were seeded in a 384-well cell culture plate, with a volume of 30 µL per well. The plate was incubated at 37°C in a 5% CO2 incubator for 4 h. 2. The compound was prepared with DMSO and diluted in DMEM medium to 10 concentrations (1:3 dilution), with final concentrations of 10000, 3333.3, 1111.1, 370.4, 123.5, 41.2, 13.7, 4.6, 1.5, and 0.5 nM; R848 was prepared with DMSO and diluted in DMEM medium, with final concentrations of 0.8 µM (HEK-Blue-hTLR7) and 3 µM (HEK-Blue-hTLR8); ODN2006 was prepared with endotoxin-free water and diluted in DMEM medium, with a final concentration of 1 µM. 3. Cells treated with DMSO were used as the blank control group, while cells treated solely with Resiquimod (R848) were used as the positive control group for HEK-Blue-hTLR7/8, and cells treated solely with ODN2006 were used as the positive control group for HEK-Blue-hTLR9. Cells treated with the test compound together with R848 or ODN2006 were used as the test group. Two parallel wells were set for each group and were placed at 37°C in a 5% CO2 incubator for incubation. 4. After being incubated for 4 h, the 384-well plate of HEK-Blue-hTLR7/8 was taken out from the incubator, and R848 alone or both R848 and the diluted compound were separately added into each well. The plate was placed at 37°C in a 5% CO2 incubator for incubation for 16 h; the 384-well plate of HEK-Blue-hTLR9 was taken out from the incubator, and ODN2006 alone or both ODN2006 and the diluted compound were added separately to each well. The plate was incubated at 37°C in a 5% CO2 incubator for 16 h. 5. After being incubated for 16 h, the 384-well plate was removed from the incubator and centrifuged at 1000 rpm for 1 minute. The optical density value of each well at 620 nm was measured using a multifunctional microplate reader. 6. The cell inhibition rate was calculated as (1-(OD620 test group-OD620 blank group)/(OD620 positive group-OD620 blank group))×100%, and the half maximal inhibitory concentration (IC50) was calculated through curve fitting. Table 1: Activity of the compounds of the present disclosure in HEK-Blue-hTLR7/8/9 cellular assays

Q: Which IC50 does the source give for `CN1CCC(c2nnc([C@]34CN(c5ccc(C#N)c6ncccc56)C[C@@]3(C(F)(F)F)C4)o2)C(F)C1` (stereo partly drawn) [Compound 50, 5-((1S,5R)-1-(5-(3-fluoro-1-methylpiperidin-4-yl)-1,3,4-oxadiazol-2-yl)-5-(trifluoromethyl)-3-azabicyclo[3.1.0]hexan-3-yl)quinoline-8-carbonitrile] here?
A: The IC50 was < 100 nM.

Q: With `CN(C)C12CCC(c3nnc([C@]45CN(c6ccc(C#N)c7ncccc67)C[C@@]4(C(F)(F)F)C5)o3)(CC1)CC2` [Compound 53, 5-((1S,5R)-1-(5-(4-(dimethylamino)bicyclo[2.2.2]octan-1-yl)-1,3,4-oxadiazol-2-yl)-5-(trifluoromethyl)-3-azabicyclo[3.1.0]hexan-3-yl)quinoline-8-carbonitrile] as the compound, how does the IC50 read?
A: Its IC50 is < 100 nM.

Q: `CN1CCC(n2cc([C@]34CN(c5ccc(C#N)c6ncccc56)C[C@@]3(C(F)(F)F)C4)nn2)CC1` [Compound 71, 5-((1S,5R)-1-(1-(1-methylpiperidin-4-yl)-1H-1,2,3-triazol-4-yl)-5-(trifluoromethyl)-3-azabicyclo[3.1.0]hexan-3-yl)quinoline-8-carbonitrile] was tested. Which IC50 did it give?
A: Its IC50 is < 100 nM.

Q: For `CN1CC(c2nnc([C@]34CN(c5ccc(C#N)c6ncccc56)C[C@@]3(C(F)(F)F)C4)o2)C1` [Compound 39, 5-((1S,5R)-1-(5-(1-methylazetidin-3-yl)-1,3,4-oxadiazol-2-yl)-5-(trifluoromethyl)-3-azabicyclo[3.1.0]hexan-3-yl)quinoline-8-carbonitrile], which IC50 is on record?
A: The IC50 was < 100 nM.

Q: `NC12CCC(c3nnc([C@]45CN(c6ccc(C(F)(F)F)c7ncccc67)C[C@@]4(C(F)(F)F)C5)o3)(CC1)CC2` [Compound 81, 4-(5-((1S,5R)-5-(trifluoromethyl)-3-(8-(trifluoromethyl)quinolin-5-yl)-3-azabicyclo[3.1.0]hexan-1-yl)-1,3,4-oxadiazol-2-yl)bicyclo[2.2.2]octan-1-amine] was tested. Which IC50 did it give?
A: The IC50 was < 100 nM.

Q: Which IC50 does the source give for `COc1ccc(N2C[C@]3(c4nnc(C5CCN(C)CC5)o4)C[C@]3(C(F)(F)F)C2)c2cccnc12` [Compound 66, 2-((1S,5R)-3-(8-methoxyquinolin-5-yl)-5-(trifluoromethyl)-3-azabicyclo[3.1.0]hexan-1-yl)-5-(1-methylpiperidin-4-yl)-1,3,4-oxadiazole] here?
A: The IC50 was < 100 nM.

Q: Which IC50 does the source give for `N#Cc1ccc(N2C[C@]3(c4nnc(C5(F)CNC5)o4)C[C@]3(C(F)(F)F)C2)c2cccnc12` [Compound 32, 5-((1S,5R)-1-(5-(3-Fluoroazetidin-3-yl)-1,3,4-oxadiazol-2-yl)-5-(trifluoromethyl)-3-azabicyclo[3.1.0]hexan-3-yl)quinoline-8-carbonitrile] here?
A: The IC50 was < 100 nM.

Q: How did the IC50 turn out when `N#Cc1ccc(N2C[C@]3(c4nnc(C5CCNCC5)o4)C[C@]3(C(F)(F)F)C2)c2c(F)cnn12` [Compound 80, 3-fluoro-4-((1S,5R)-1-(5-(piperidin-4-yl)-1,3,4-oxadiazol-2-yl)-5-(trifluoromethyl)-3-azabicyclo[3.1.0]hexan-3-yl)pyrazolo[1,5-a]pyridine-7-carbonitrile] was run?
A: The IC50 was < 100 nM.

Q: Which IC50 does the source give for `N#Cc1ccc(N2C[C@]3(c4nnc(C5=CCNC5)o4)C[C@]3(C(F)(F)F)C2)c2cccnc12` [Compound 22, 5-((1S,5R)-1-(5-(2,5-dihydro-1H-pyrrol-3-yl)-1,3,4-oxadiazol-2-yl)-5-(trifluoromethyl)-3-azabicyclo[3.1.0]hexan-3-yl)quinoline-8-carbonitrile] here?
A: Its IC50 is < 100 nM.

Q: For `Cn1c(CN2CCCC2)nnc1[C@]12CN(c3ccc(C#N)c4ncccc34)C[C@@]1(C(F)(F)F)C2` [Compound 44, 5-((1S,5R)-1-(4-methyl-5-(pyrrolidin-1-ylmethyl)-4H-1,2,4-triazol-3-yl)-5-(trifluoromethyl)-3-azabicyclo[3.1.0]hexan-3-yl)quinoline-8-carbonitrile], which IC50 is on record?
A: The IC50 was > 1000 nM.

Q: How did the IC50 turn out when `N#Cc1ccc(N2C[C@]3(c4nnc(CN5CCCC5)o4)C[C@]3(C(F)(F)F)C2)c2cccnc12` [Compound 41, 5-((1S,5R)-1-(5-(Pyrrolidin-1-ylmethyl)-1,3,4-oxadiazol-2-yl)-5-(trifluoromethyl)-3-azabicyclo[3.1.0]hexan-3-yl)quinoline-8-carbonitrile] was run?
A: Its IC50 is < 1000 nM.

Q: Which IC50 does the source give for `N#Cc1ccc(N2C[C@]3(c4nnc(C5CCNCC5F)o4)C[C@]3(C(F)(F)F)C2)c2cccnc12` (stereo partly shown) [Compound 33] here?
A: Its IC50 is < 100 nM.

Q: How did the IC50 turn out when `N#Cc1ccc(N2C[C@]3(c4nnc(C#CCN5CCOCC5)o4)C[C@]3(C(F)(F)F)C2)c2cccnc12` [Compound 24, 5-((1S,5R)-1-(5-(3-morpholinoprop-1-yn-1-yl)-1,3,4-oxadiazol-2-yl)-5-(trifluoromethyl)-3-azabicyclo[3.1.0]hexan-3-yl)quinoline-8-carbonitrile] was run?
A: The IC50 was < 100 nM.

Q: With `N#Cc1ccc(N2C[C@]3(c4nnc(C5CC6(CNC6)C5)o4)C[C@]3(C(F)(F)F)C2)c2cccnc12` [Compound 18, 5-((1S,5R)-1-(5-(2-azaspiro[3.3]heptan-6-yl)-1,3,4-oxadiazol-2-yl)-5-(trifluoromethyl)-3-azabicyclo[3.1.0]hexan-3-yl)quinoline-8-carbonitrile] as the compound, how does the IC50 read?
A: Its IC50 is < 100 nM.

Q: Which IC50 does the source give for `N#Cc1ccc(N2C[C@]3(c4nnc(C5CNCC(F)C5)o4)C[C@]3(C(F)(F)F)C2)c2cccnc12` (stereo partly drawn) [Compound 45, 5-((1R,5S)-1-((difluoro-3-methyl)-12-fluoraneyl)-5-(5-(5-fluoropiperidin-3-yl)-1,3,4-oxadiazol-2-yl)-3-azabicyclo[3.1.0]hexan-3-yl)quinoline-8-carbonitrile] here?
A: The IC50 was < 100 nM.

Q: For `Cc1cc(N2CC3(c4nnc(C5CCN(C)CC5)o4)C[C@]3(C(F)(F)F)C2)c2cnn(C)c2n1` (stereo partly drawn) [Compound 2, 2-((5R)-3-(1,6-dimethyl-1H-pyrazolo[3,4-b]pyridin-4-yl)-5-(trifluoromethyl)-3-azabicyclo[3.1.0]hexan-1-yl)-5-(1-methylpiperidin-4-yl)-1,3,4-oxadiazole], which IC50 is on record?
A: Its IC50 is > 1000 nM.

Q: `CN1CCC(F)(c2nnc([C@]34CN(c5ccc(C#N)n6nccc56)C[C@@]3(C(F)(F)F)C4)o2)CC1` [Compound 90, 4-((1S,5R)-1-(5-(4-fluoro-1-methylpiperidin-4-yl)-1,3,4-oxadiazol-2-yl)-5-(trifluoromethyl)-3-azabicyclo[3.1.0]hexan-3-yl)pyrazolo[1,5-a]pyridine-7-carbonitrile] was tested. Which IC50 did it give?
A: The IC50 was < 100 nM.

Q: Which IC50 does the source give for `CN1CCN(c2nnc([C@]34CN(c5ccc(C#N)c6ncccc56)C[C@@]3(C(F)(F)F)C4)o2)CC1` [Compound 1, 5-((1S,5R)-1-(5-(4-methylpiperazin-1-yl)-1,3,4-oxadiazol-2-yl)-5-(trifluoromethyl)-3-azabicyclo[3.1.0]hexan-3-yl)quinoline-8-carbonitrile] here?
A: The IC50 was < 100 nM.

Q: `N#Cc1ccc(N2C[C@]3(c4nnc(C5CCOCC5)o4)C[C@]3(C(F)(F)F)C2)c2cccnc12` [Compound 12, 5-((1S,5R)-1-(5-(tetrahydro-2H-pyran-4-yl)-1,3,4-oxadiazol-2-yl)-5-(trifluoromethyl)-3-azabicyclo[3.1.0]hexan-3-yl)quinoline-8-carbonitrile] was tested. Which IC50 did it give?
A: The IC50 was < 100 nM.

— patent publication EP4806891A1 (Kangbaida (Sichuan) Biotechnology Co., Ltd., priority 2023, dated 2025)
